From patent US8546086B2, “Use of neuregulin-β as an indicator and/or target” (Mind-NRG SA, priority 2000, dated 2013) come the findings set out here.

Holding throughout (format): cell-based, rat
The subject of assay [1] is Neuregulin-β. Briefly: 2-D-PAGE / MALDI-TOF-MS / ESI-MS of glutamate-induced changes in hippocampal proteins. Conditions: for Quantity of Neu-β (32 kDa spot) in 2-D-PAGE: FIG. 4: B=glutamate, C=glutamate+MK-801 (10 μM MK-801). An excerpt: Hippocampal cells were stimulated with stimulation buffer (in mM): NaCl (125), KCL (5), CaCl2 (2-6), MgCl2 (0.8) glucose (5-10), HEPES (20), L-glutamate (0.01-0.1), glycine (0.01), bicucullin (0.01), pH 7.2; (A=control, B=glutamate, C=glutamate+MK-801; MK-801 is a specific glutamate receptor antagonist). In this connection, the measured or control quantity indicative of performance was a fluorescence signal measured using Fura-2, which signal is proportional to the calcium concentration (all the substances can be found in chemical catalogues supplied by Torris or Sigma).
Furthermore, proteins which change under the chosen experimental conditions, or otherwise behave in a conspicuous manner, are characterized and identified using the techniques of proteome research, namely by means of two-dimensional gel electrophoresis, MALDI-TOF-MS and ESI-MS.
Neuregulin-β was identified by means of two-dimensional PAGE using isoelectric focusing and employing immobilized, nonlinear pH gradients of from 3 to 10 and linear gradients of from 4 to 7 as the first dimension and SDS-PAGE (12% acrylamide) as the second dimension.
The protein was excised from the gels, subjected to a trypsin cleavage within the gel and subsequently [lacuna] mass-spectroscopically by means of MALDI-TOF mass fingerprint and ESI peptide sequencing (Corthals et al., Identification of Proteins by Mass-Spectrometry, in: Proteome Research, Two-Dimensional Gel-Electrophoresis and Identification Methods, Thierry Rabilloud, Ed., Springer, Berlin (2000), 197-232).
The identity of the protein was confirmed by analyzing selected peptides by means of MS/MS analysis using ion traps, electrospray, mass spectroscopy of the peptide mixture, which was not fractionated and which had previously been analyzed by MALDI-TOF. The MS/MS analysis of m/z 798.4 was sufficient in order, inter alia, to identify the 88-94 peptide of neuregulin-β. The MS/MS analysis of m/z=842.7 confirmed the sequence of the peptide around position 81-87. […]

The subject of assay [2] is hippocampal cells. The assay can be described thus: Fura-2 fluorescence imaging of intracellular calcium after glutamate stimulation in flow cell. Conditions: hippocampal neurons. An excerpt: Hippocampal cells were stimulated with stimulation buffer (in mM): NaCl (125), KCL (5), CaCl2 (2-6), MgCl2 (0.8) glucose (5-10), HEPES (20), L-glutamate (0.01-0.1), glycine (0.01), bicucullin (0.01), pH 7.2; (A=control, B=glutamate, C=glutamate+MK-801; MK-801 is a specific glutamate receptor antagonist). In this connection, the measured or control quantity indicative of performance was a fluorescence signal measured using Fura-2, which signal is proportional to the calcium concentration (all the substances can be found in chemical catalogues supplied by Torris or Sigma). […]
The fluorescence signals in a larger number of cells are detected, in a time-resolved manner, in dependence on the stimulation conditions (temperature, active compound).
(§1) In the above-described set up, the following parameters were determined simultaneously or in an explicitly correlating manner. […] Accompanying this, are the simultaneous changes in the release of neurotransmitter (GABA), the influx of Mg into the cells, as detected using the stable isotopic tracer ^26Mg. […]

The subject of assay [3] is hippocampal cells. The assay can be described thus: Neurotransmitter (GABA) release in perfusate by fluorescence HPLC. Conditions: hippocampal neurons, 100 μm glutamate for 30 seconds, +22° C.; control 87 pMol. As for the experimental part: (§2) Suitable cell culture systems, in the case of neuregulin-β hippocampal primary cultures obtained from prenatal or neonatal rats (described in, for example, “Rat hippocampal neurons in low-density culture”, K. Goslin, H. Asmussen, G. Banker; in “Culturing Nerve Cells, 2nd edition 1998, pp. 339 ff; K. Goslin and G. Banker, eds. MIT Press, Cambridge, Mass., USA), are cultured on the above-described slides, introduced into the flow cell and initially characterized microscopically (morphological micrographs, etc. in the phase contrast microscope). […]
(§3) Almost in parallel to this, the perfusate is subjected to a synchronized fractionation and analysis; in the case of hippocampal neurons, of neurotransmitters, by means of HPLC using fluorescence detection, in the case of other low molecular weight extracellular components, by means of EMI-MS, and in the case of stable isotopic tracers and metal ions, by means of ICP-MS.
as §1

Assay [4] has as its system hippocampal cells. Briefly: Intracellular 26Mg stable isotopic tracer by ICP-MS. The note with it: hippocampal neurons, 100 μm glutamate for 30 seconds, +22° C.; control 25 nM/mg of protein. As for the experimental part: as §2, §3, §1

Each structure is given as a SMILES string.

On to `C[C@]12N[C@H](Cc3ccccc31)c1ccccc12` [MK-801], for which, in assay [1], the “Quantity of Neu-β (32 kDa spot) in 2-D-PAGE” value is on record as “only weakly present, or cannot be found at all”.

Take `N[C@@H](CCC(=O)O)C(=O)O` [glutamate, L-glutamate]: the “Calcium (intracellular) concentration (prestimulated)” value in assay [2] (100 μm glutamate for 30 seconds, +22° C., control 350 nM) came to 850 nM. For the same compound, the “Calcium inflow (Fura-2)” value in assay [2] (qualitative) is reported as “induces an inflow of calcium ions”. Also, the “GABA measured quantity (prestimulated)” value in assay [3] worked out at 74 pmol. Also, the “26Mg (intracellular) concentration (prestimulated)” value in assay [4] is 45 nM/mg of nM/mg of protein. The “Quantity of Neu-β (32 kDa spot) in 2-D-PAGE” value in assay [1] is on record as “substantially larger quantity”. Further, the “Neuregulin-β expression (prestimulated)” value in assay [1] (hippocampal neurons, glutamate stimulated, control not expressed) is “Strongly”.
